{
  "source": "patent US20180116978A1",
  "about": "“FORMULATIONS OF TOCOTRIENOL QUINONES FOR THE TREATMENT OF OPHTHALMIC DISEASES” (priority 2009, published 2018)",
  "key": {"[1]": {"settings": "rat, cited from earlier work"}, "[2]": {"settings": "rat, in vivo"}, "[3]": {"test": "Animal study of alpha-tocotrienol quinone administration, pharmacokinetics in fasted dogs", "assay_type": "in vivo", "settings": "10 mg/kg"}, "[4]": {"settings": "rat, in vivo", "excerpt": "The starting dose can be estimated based on the United States Food and Drug Administration guidelines titled “Estimating the Maximum Safe Starting Dose in Initial Clinical Trials for Therapeutics in Adult Healthy Volunteers” (July 2005) as well as the International Conference on Harmonisation of Technical Requirements for Registration of Pharmaceuticals for Human Use (ICH) guidelines titled “Guidance on Non-clinical Safety Studies for the Conduct of Human Clinical Trials and Marketing Authorization for Pharmaceuticals” (July 2008). Per ICH guidelines, predicted exposures from the starting dose should not exceed 1/50th the NOAEL (No-Adverse-Observed-Effect-Level) in the more sensitive species on a mg/m^2 basis. Following a single oral dose of alpha-tocotrienol quinone, the NOAEL was established to be 500 mg/kg for the female rat, i.e. 3,000 mg/m^2. This dosage would be equivalent to 81 mg/kg in an adult human. 1/50th of 81 mg/kg is 1.6 mg/kg, i.e. 110 mg for a 70 kg adult, or 16 mg for a 10 kg child. This dose can be administered once, twice, or three times daily.", "remark": "listed apart in the source"}},
  "note": "Where two headings read alike, the source gives them in different places.",
  "data": [
    {"compound": "Cc1c(C)c2c(c(C)c1O)CC[C@@](C)(CCC[C@H](C)CCC[C@H](C)CCCC(C)C)O2", "note": "[alpha-tocopherol]", "values": [
      {"measurement": "concentration in ocular tissues", "setting": "[1]; in vivo", "result": "no significant increase"}
    ]},
    {"compound": "CC(C)=CCC/C(C)=C/CC/C(C)=C/CCC(C)(O)CCC1=C(C)C(=O)C(C)=C(C)C1=O", "note": "(stereo not drawn) [Alpha-tocotrienol quinone, Alpha-Tocotrienol quinone]", "values": [
      {"measurement": "increase in AUCs", "setting": "[2]", "result": "1.5:2.8:4.0:6.7"},
      {"measurement": "Cmax", "setting": "[2]; 10 mg/kg", "result": 931, "unit": "ng/mL"},
      {"measurement": "Tmax", "setting": "[2]; 10 mg/kg", "result": 3.5, "unit": "h"},
      {"measurement": "bioavailability", "setting": "[2]; 10 mg/kg", "result": "~90", "unit": "%"},
      {"measurement": "t1/2", "setting": "[2]; 10 mg/kg", "result": 3.5, "unit": "h"},
      {"measurement": "Cmax", "setting": "[3]", "result": 442, "unit": "ng/mL"},
      {"measurement": "Tmax", "setting": "[3]", "result": 2.8, "unit": "h"},
      {"measurement": "bioavailability", "setting": "[3]", "result": "~16", "unit": "%"},
      {"measurement": "t1/2", "setting": "[3]", "result": 7.6, "unit": "h"},
      {"measurement": "NOAEL equivalent dosage in an adult human", "setting": "[4]", "result": 81, "unit": "mg/kg"},
      {"measurement": "safe when given acutely up to", "setting": "[4]", "result": "up to 2000 mg/kg"}
    ]},
    {"compound": "alpha-tocotrienol", "values": [
      {"measurement": "concentration in ocular tissues", "setting": "[1]; topical ophthalmic administration", "result": "increased markedly in every tissue"}
    ]}
  ]
}
